Reference: the supplement of paper PMC10307832

How the values were obtained:
Assay in all cases: relative viability (nuclei count vs DMSO), 5 days (fraction); higher = more cells survive
[1] = compound: C1CNCCC1C2=CC(=NN2)C3=CC=NC=C3 + CC(=O)Nc1cccc(-n2c(=O)n(C3CC3)c(=O)c3c(Nc4ccc(I)cc4F)n(C)c(=O)c(C)c32)c1 [Trametinib] (partner 0.02 µM)
Outline: (§1)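 Relative viability divides the nuclei count in treated wells by that in vehicle wells. Lung cancer cell lines were seeded in 1536-well plates, dosed by pin tool the next day, and fixed and stained after 5 days in one step with final 0.05% Triton X-100, 1% formaldehyde and 1 ug/ml Hoechst. Dosing was a single drug or a fixed anchor-drug dose plus five library-drug doses (not always all listed) in √10 steps, and values are medians of duplicate plates imaged at 4×.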

[2] = compound: C1CNCCC1C2=CC(=NN2)C3=CC=NC=C3 + COc1cc2c(Oc3ccc(NC(=O)C4(C(=O)Nc5ccc(F)cc5)CC4)cc3F)ccnc2cc1OCCCN1CCOCC1 [Foretinib] (partner 0.25 µM)
Outline: as §1

Tanzisertib + Foretinib = compound: O[C@H]1CC[C@H](Nc2ncc3nc(Nc4c(F)cc(F)cc4F)n([C@H]4CCOC4)c3n2)CC1 [Tanzisertib] + COc1cc2c(Oc3ccc(NC(=O)C4(C(=O)Nc5ccc(F)cc5)CC4)cc3F)ccnc2cc1OCCCN1CCOCC1 [Foretinib] (partner 0.25 µM)
Outline: as §1

[3] = compound: C1CNCCC1C2=CC(=NN2)C3=CC=NC=C3 + Cc1cc(Nc2cc(N3CCN(C)CC3)nc(Sc3ccc(NC(=O)C4CC4)cc3)n2)n[nH]1 [Tozasertib] (partner 0.1 µM)
Outline: as §1

Cell Line: NCI-H1792
- relative viability ([1]; first compound 0.08 µM): 0.428
- relative viability ([1]; first compound 0.8 µM): 0.487
- relative viability ([1]; first compound 2.53 µM): 0.539
- relative viability ([1]; first compound 8 µM): 0.438

Cell Line: LXF-289
- relative viability ([2]; first compound 0.08 µM): 0.978
- relative viability ([2]; first compound 0.8 µM): 1.03
- relative viability ([2]; first compound 2.53 µM): 0.989
- relative viability ([2]; first compound 8 µM): 0.918
- relative viability (Tanzisertib + Foretinib; first compound 0.08 µM): 1.02
- relative viability (Tanzisertib + Foretinib; first compound 0.253 µM): 1.01
- relative viability (Tanzisertib + Foretinib; first compound 0.8 µM): 1.06
- relative viability (Tanzisertib + Foretinib; first compound 2.53 µM): 0.989
- relative viability (Tanzisertib + Foretinib; first compound 8 µM): 1.03
- relative viability ([1]; first compound 0.08 µM): 0.658
- relative viability ([1]; first compound 0.8 µM): 0.768
- relative viability ([1]; first compound 2.53 µM): 0.653
- relative viability ([1]; first compound 8 µM): 0.706
- relative viability ([3]; first compound 0.08 µM): 0.219
- relative viability ([3]; first compound 0.8 µM): 0.196
- relative viability ([3]; first compound 2.53 µM): 0.178
- relative viability ([3]; first compound 8 µM): 0.207

Cell Line: HCC-827
- relative viability ([2]; first compound 0.08 µM): 1.04
- relative viability ([2]; first compound 0.8 µM): 1.07
- relative viability ([2]; first compound 2.53 µM): 1.01
- relative viability ([2]; first compound 8 µM): 1.12
- relative viability (Tanzisertib + Foretinib; first compound 0.08 µM): 1.13
- relative viability (Tanzisertib + Foretinib; first compound 0.253 µM): 1.1
- relative viability (Tanzisertib + Foretinib; first compound 0.8 µM): 1.07
- relative viability (Tanzisertib + Foretinib; first compound 2.53 µM): 0.814
- relative viability (Tanzisertib + Foretinib; first compound 8 µM): 0.389
- relative viability ([1]; first compound 0.08 µM): 0.524
- relative viability ([1]; first compound 0.8 µM): 0.5
- relative viability ([1]; first compound 2.53 µM): 0.599
- relative viability ([1]; first compound 8 µM): 0.601
- relative viability ([3]; first compound 0.08 µM): 0.389
- relative viability ([3]; first compound 0.8 µM): 0.435
- relative viability ([3]; first compound 2.53 µM): 0.453
- relative viability ([3]; first compound 8 µM): 0.432

Cell Line: EMC-BAC-2
- relative viability ([2]; first compound 0.08 µM): 0.937
- relative viability ([2]; first compound 0.8 µM): 1.05
- relative viability ([2]; first compound 2.53 µM): 1.16
- relative viability ([2]; first compound 8 µM): 0.843
- relative viability (Tanzisertib + Foretinib; first compound 0.08 µM): 1.04
- relative viability (Tanzisertib + Foretinib; first compound 0.253 µM): 0.937
- relative viability (Tanzisertib + Foretinib; first compound 0.8 µM): 0.988
- relative viability (Tanzisertib + Foretinib; first compound 2.53 µM): 0.969
- relative viability (Tanzisertib + Foretinib; first compound 8 µM): 0.966
- relative viability ([1]; first compound 0.8 µM): 0.946
- relative viability ([1]; first compound 2.53 µM): 0.994
- relative viability ([1]; first compound 8 µM): 0.991
- relative viability ([3]; first compound 0.08 µM): 0.28
- relative viability ([3]; first compound 0.8 µM): 0.311
- relative viability ([3]; first compound 2.53 µM): 0.319
- relative viability ([3]; first compound 8 µM): 0.263

Cell Line: NCI-H520
- relative viability ([2]; first compound 0.08 µM): 0.613
- relative viability ([2]; first compound 0.8 µM): 0.722
- relative viability ([2]; first compound 2.53 µM): 0.811
- relative viability ([2]; first compound 8 µM): 0.545
- relative viability (Tanzisertib + Foretinib; first compound 0.08 µM): 0.792
- relative viability (Tanzisertib + Foretinib; first compound 0.253 µM): 0.734
- relative viability (Tanzisertib + Foretinib; first compound 0.8 µM): 0.83
- relative viability (Tanzisertib + Foretinib; first compound 2.53 µM): 0.753
- relative viability (Tanzisertib + Foretinib; first compound 8 µM): 0.757
- relative viability ([1]; first compound 0.08 µM): 0.609
- relative viability ([1]; first compound 0.8 µM): 0.776
- relative viability ([1]; first compound 2.53 µM): 0.666
- relative viability ([1]; first compound 8 µM): 0.725
- relative viability ([3]; first compound 0.08 µM): 0.395
- relative viability ([3]; first compound 0.8 µM): 0.378
- relative viability ([3]; first compound 2.53 µM): 0.457
- relative viability ([3]; first compound 8 µM): 0.457

Cell Line: NCI-H1755
- relative viability ([2]; first compound 0.08 µM): 0.968
- relative viability ([2]; first compound 2.53 µM): 0.908
- relative viability ([2]; first compound 8 µM): 0.897
- relative viability (Tanzisertib + Foretinib; first compound 0.08 µM): 0.913
- relative viability (Tanzisertib + Foretinib; first compound 0.253 µM): 0.931
- relative viability (Tanzisertib + Foretinib; first compound 0.8 µM): 0.882
- relative viability (Tanzisertib + Foretinib; first compound 2.53 µM): 0.891
- relative viability (Tanzisertib + Foretinib; first compound 8 µM): 0.878
- relative viability ([1]; first compound 0.08 µM): 0.744
- relative viability ([1]; first compound 0.8 µM): 0.833
- relative viability ([1]; first compound 2.53 µM): 0.755
- relative viability ([1]; first compound 8 µM): 0.739
- relative viability ([3]; first compound 0.08 µM): 0.583
- relative viability ([3]; first compound 2.53 µM): 0.643
- relative viability ([3]; first compound 8 µM): 0.526

Cell Line: NCI-H1993
- relative viability ([2]; first compound 0.08 µM): 0.857
- relative viability ([2]; first compound 0.8 µM): 0.744
- relative viability ([2]; first compound 2.53 µM): 0.887
- relative viability ([2]; first compound 8 µM): 0.808
- relative viability (Tanzisertib + Foretinib; first compound 0.08 µM): 0.823
- relative viability (Tanzisertib + Foretinib; first compound 0.253 µM): 0.841
- relative viability (Tanzisertib + Foretinib; first compound 0.8 µM): 0.844
- relative viability (Tanzisertib + Foretinib; first compound 2.53 µM): 0.786
- relative viability (Tanzisertib + Foretinib; first compound 8 µM): 0.73
- relative viability ([1]; first compound 0.08 µM): 0.512
- relative viability ([1]; first compound 0.8 µM): 0.597
- relative viability ([1]; first compound 2.53 µM): 0.509
- relative viability ([1]; first compound 8 µM): 0.536
- relative viability ([3]; first compound 0.08 µM): 0.586
- relative viability ([3]; first compound 0.8 µM): 0.618
- relative viability ([3]; first compound 2.53 µM): 0.564
- relative viability ([3]; first compound 8 µM): 0.653

Cell Line: NCI-H23
- relative viability ([2]; first compound 0.08 µM): 0.766
- relative viability ([2]; first compound 0.8 µM): 1.19
- relative viability ([2]; first compound 2.53 µM): 1.25
- relative viability ([2]; first compound 8 µM): 1.11
- relative viability (Tanzisertib + Foretinib; first compound 0.08 µM): 1.01
- relative viability (Tanzisertib + Foretinib; first compound 0.253 µM): 1.07
- relative viability (Tanzisertib + Foretinib; first compound 0.8 µM): 0.996
- relative viability (Tanzisertib + Foretinib; first compound 2.53 µM): 0.952
- relative viability (Tanzisertib + Foretinib; first compound 8 µM): 1.02
- relative viability ([1]; first compound 0.08 µM): 0.372
- relative viability ([1]; first compound 2.53 µM): 0.444
- relative viability ([1]; first compound 8 µM): 0.371
- relative viability ([3]; first compound 0.08 µM): 0.35
- relative viability ([3]; first compound 0.8 µM): 0.422
- relative viability ([3]; first compound 2.53 µM): 0.411
- relative viability ([3]; first compound 8 µM): 0.36

Cell Line: SW 900
- relative viability ([2]; first compound 0.08 µM): 0.899
- relative viability ([2]; first compound 0.8 µM): 1.01
- relative viability ([2]; first compound 2.53 µM): 0.856
- relative viability ([2]; first compound 8 µM): 1.01
- relative viability (Tanzisertib + Foretinib; first compound 0.08 µM): 1.02
- relative viability (Tanzisertib + Foretinib; first compound 0.253 µM): 0.784
- relative viability (Tanzisertib + Foretinib; first compound 0.8 µM): 1.07
- relative viability (Tanzisertib + Foretinib; first compound 2.53 µM): 0.924
- relative viability (Tanzisertib + Foretinib; first compound 8 µM): 0.787
- relative viability ([1]; first compound 0.08 µM): 0.751
- relative viability ([1]; first compound 2.53 µM): 0.901
- relative viability ([1]; first compound 8 µM): 0.836
- relative viability ([3]; first compound 0.08 µM): 0.648
- relative viability ([3]; first compound 0.8 µM): 0.623
- relative viability ([3]; first compound 2.53 µM): 0.514
- relative viability ([3]; first compound 8 µM): 0.681

Cell Line: NCI-H1437
- relative viability ([2]; first compound 0.08 µM): 1.21
- relative viability ([2]; first compound 0.8 µM): 1.32
- relative viability ([2]; first compound 2.53 µM): 1.25
- relative viability ([2]; first compound 8 µM): 1.28
- relative viability (Tanzisertib + Foretinib; first compound 0.08 µM): 1.26
- relative viability (Tanzisertib + Foretinib; first compound 0.253 µM): 1.31
- relative viability (Tanzisertib + Foretinib; first compound 0.8 µM): 1.32
- relative viability (Tanzisertib + Foretinib; first compound 2.53 µM): 1.42
- relative viability (Tanzisertib + Foretinib; first compound 8 µM): 1.29
- relative viability ([1]; first compound 0.08 µM): 0.54
- relative viability ([1]; first compound 0.8 µM): 0.536
- relative viability ([1]; first compound 2.53 µM): 0.679
- relative viability ([1]; first compound 8 µM): 0.639
- relative viability ([3]; first compound 0.08 µM): 0.412
- relative viability ([3]; first compound 0.8 µM): 0.415
- relative viability ([3]; first compound 2.53 µM): 0.417
- relative viability ([3]; first compound 8 µM): 0.421
